# Laboratory results taken from patent publication US9588123B2, “Compositions and methods for in vitro diagnostic tests including zwitterionic solubilization reagent” (SurModics IVD, Inc., priority 2014, dated 2017).
# Like-named read-outs stand apart in the source and are kept apart here.
# Experiments:
# HRP = assay: Kinetic rate of HRP oxidation of TMB substrate on anti-peroxidase coated microwell plate, A (650 nm); format: biochemical, horseradish; conditions: 0-1 OD at 650 nm, 0-15 minutes
# Procedure: A TMB solution was prepared having the following concentration of reagents: 3 mM TMB (Sigma, Cat #T-2885), 0.5% dimethylsulfoxide (DMSO; […] Various chemicals, used at 0.5M in the TMB solution, were compared against the betaine reagent in non-encapsulation solubilization methods. Glycine (Sigma, Cat #G8898), sarcosine (Sigma, Cat #131776), choline chloride (Sigma, Cat #C1909), L-carnitine (Sigma, Cat #C0158), 3-(1-pyridinio)-1-propanesulfonate (Sigma, Cat #82804), or the betaine N,N,N-trimethylglycine (Sigma, Cat #B2629) were all added to separate scintillation vials of TMB solution. A Nunc Maxisorb 96 microwell plate (Cat #439454) was coated with 100 μL of an 850 ng/mL solution of Rabbit Anti-Peroxidase (Accurate Chemical and Scientific Corporation, Cat #ACZ001021). The plate was then coated with 150 μL of StabilCoat (SurModics, Cat #SC01) for one hour. This was then aspirated and the plate was allowed to dry overnight in a desiccation chamber. Plates were then incubated with 100 μL of 3.125 ng/mL solution of HRP in Stabilzyme HRP Conjugate stabilizer (SurModics, SZ02) for one hour, washed three times, and 100 uL of TMB substrate was added to each well. […] To each TMB solution was added 1 mM hydroxy propyl beta-cyclodextrin (Wacker, 60082620), 3 mm hydroxy propyl beta-cyclodextrin (Wacker, 60082620), or 0.5M of the betaine N,N,N-trimethylglycine (Sigma, Cat #B2629). A Nunc Maxisorb 96 microwell plate (Cat #439454) was coated with 100 μL of an 850 ng/mL solution of Rabbit Anti-Peroxidase (Accurate Chemical and Scientific Corporation, Cat #ACZ001021). The plate was then coated with 150 μL of StabilCoat (SurModics, Cat #SC01) for one hour. This was then aspirated and the plate was allowed to dry overnight in a desiccation chamber. Plates were then incubated with 100 μL of 3.125 ng/mL solution of HRP in Stabilzyme HRP Conjugate stabilizer (SurModics, SZ02) for one hour, washed three times, and 100 uL of TMB substrate was added to each well.
# [1] = Dye content of TMB solution, A (285 nm): amount of unrestricted benzidine rings in solution; format: physicochemical
# Procedure: A TMB solution was prepared having the following concentration of reagents: 3 mM TMB (Sigma, Cat #T-2885), 0.5% dimethylsulfoxide (DMSO; […] Various chemicals, used at 0.5M in the TMB solution, were compared against the betaine reagent in non-encapsulation solubilization methods. Glycine (Sigma, Cat #G8898), sarcosine (Sigma, Cat #131776), choline chloride (Sigma, Cat #C1909), L-carnitine (Sigma, Cat #C0158), 3-(1-pyridinio)-1-propanesulfonate (Sigma, Cat #82804), or the betaine N,N,N-trimethylglycine (Sigma, Cat #B2629) were all added to separate scintillation vials of TMB solution. Each TMB substrate and TMBW (available from SurModics, Inc) in an amount of 20 μL were added to individual aliquots of 980 μL of distilled water. […] Each TMB solution in an amount of 20 μL was added to individual aliquots of 980 μL of distilled water. […] To each TMB solution was added 1 mM hydroxy propyl beta-cyclodextrin (Wacker, 60082620), 3 mm hydroxy propyl beta-cyclodextrin (Wacker, 60082620), or 0.5M of the betaine N,N,N-trimethylglycine (Sigma, Cat #B2629). Each TMB substrate and TMBW (available from SurModics, Inc) in an amount of 20 μL of were added to individual aliquots of 980 μL of distilled water.
# [2] = cited from earlier work
# [3] = Example 1: additive at 0.5M in TMB solution (3 mM TMB, 1.25 mM hydroxypropyl beta-cyclodextrin, pH 3.5), TMBW as supplied
# [4] = Example 1: additive at 0.5M in TMB solution (3 mM TMB, 0.5% DMSO, 1.25 mM hydroxypropyl beta-cyclodextrin, 0.01% H2O2, pH 3.5), TMBW as supplied, 20 μL in 980 μL water
molecule,measurement,setting,value
"O=S(=O)([O-])CCC[n+]1ccccc1 [3-(1-Pyridinio)-1-propanesulfonate, 3-(1-pyridinio)-1-propanesulfonate]",Kinetics (mAu/min),HRP; [3],49.732 mAu/min
same,Dye (A285),[1]; [4],1.175
NCC(=O)O [Glycine],Kinetics (mAu/min),HRP; [3],41.16 mAu/min
same,Dye (A285),[1]; [4],0.358
Cc1cc(-c2ccc(N)c(C)c2)ccc1N [2-tolidine],solubility in water,[2],1.3 g/L
"CNCC(=O)O [Sarcosine, sarcosine]",Kinetics (mAu/min),HRP; [3],45.014 mAu/min
same,Dye (A285),[1]; [4],0.45
"C[N+](C)(C)CCO.[Cl-] [Choline Chloride, choline chloride]",Kinetics (mAu/min),HRP; [3],2.855 mAu/min
same,Dye (A285),[1]; [4],1.074
"Nc1ccc(-c2ccc(N)cc2)cc1 [Benzidine, biphenyl-4,4′-diamine]",solubility in water,"[2]; at 100° C., in the absence of the N,N,N-trimethylglycine solubilization reagent",0.94 g/100 mL
"C[N+](C)(C)C[C@H](O)CC(=O)[O-] (racemic) [DL-Carnitine, L-carnitine]",Kinetics (mAu/min),HRP; [3],18.432 mAu/min
same,Dye (A285),[1]; [4],0.254
"C[N+](C)(C)CC(=O)O [Betaine (N,N,N-trimethylglycine), N,N,N-trimethylglycine]",Kinetics (mAu/min),HRP; [3],71.917 mAu/min
same,Kinetics (mAu/min),"HRP; Example 3: 0.5M additive in 3 mM TMB solution, pH 3.5",71.739 mAu/min
same,Dye (A285),[1]; [4],0.974
same,Dye (A285),"[1]; Example 2: 0.25M N,N,N-trimethylglycine, 3 mM TMB, 0.5% DMSO, pH 3.5",0.35
same,Dye (A285),"[1]; Example 2: 0.5M N,N,N-trimethylglycine, 3 mM TMB, 0.5% DMSO, pH 3.5",0.535
same,Dye (A285),"[1]; Example 2: 1M N,N,N-trimethylglycine, 3 mM TMB, 0.5% DMSO, pH 3.5",0.85
same,Dye (A285),"[1]; Example 3: 0.5M additive in 3 mM TMB, 0.5% DMSO, 0.01% H2O2, pH 3.5",1.061
same,solubility in water,[2]; at 25° C.,up to 64 g/100 mL
same,solubility in water (molar),[2]; at 25° C.,~5500 mM
hydroxy propyl beta-cyclodextrin [Beta Cyclodextrin],Kinetics (mAu/min),"HRP; Example 3: 1 mM additive in 3 mM TMB solution, pH 3.5",39.697 mAu/min
same,Kinetics (mAu/min),"HRP; Example 3: 3 mM additive in 3 mM TMB solution, pH 3.5",49.775 mAu/min
same,Dye (A285),"[1]; Example 3: 1 mM additive in 3 mM TMB, 0.5% DMSO, 0.01% H2O2, pH 3.5",0.339
same,Dye (A285),"[1]; Example 3: 3 mM additive in 3 mM TMB, 0.5% DMSO, 0.01% H2O2, pH 3.5",0.78
